Data published in PubChem BioAssay (NCI).
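1) Cells in 96-well plates. 2) Compound, 48 h, 5 concentrations. 3) Linear interpolation between surrounding doses. 4) Unreached endpoint = highest concentration. At the TGI there is no net growth.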

Experiments:
Test in all cases: inhibition of tumour cell growth, NCI panel, 48 h
OVCAR-4 ovarian = test system: OVCAR-4 ovarian
786-0 renal = test system: 786-0 renal
HOP-92 NSCLC = test system: HOP-92 NSCLC
BT-549 breast = test system: BT-549 breast
OVCAR-8 ovarian = test system: OVCAR-8 ovarian
A498 renal = test system: A498 renal
NCI-H460 lung = test system: NCI-H460 lung
HT29 colon = test system: HT29 colon
KM12 colon = test system: KM12 colon
IGROV1 ovarian = test system: IGROV1 ovarian
DU-145 prostate = test system: DU-145 prostate
UACC-62 melanoma = test system: UACC-62 melanoma
U251 CNS = test system: U251 CNS
OVCAR-5 ovarian = test system: OVCAR-5 ovarian
EKVX NSCLC = test system: EKVX NSCLC
LOX IMVI melanoma = test system: LOX IMVI melanoma
MDA-N = test system: MDA-N
UACC-257 melanoma = test system: UACC-257 melanoma
SNB-19 CNS = test system: SNB-19 CNS
MDA-MB-435 = test system: MDA-MB-435
CCRF-CEM leukemia = test system: CCRF-CEM leukemia
SK-MEL-28 melanoma = test system: SK-MEL-28 melanoma
SK-MEL-2 melanoma = test system: SK-MEL-2 melanoma
SNB-75 CNS = test system: SNB-75 CNS
NCI/ADR-RES ovarian = test system: NCI/ADR-RES ovarian
NCI-H522 lung = test system: NCI-H522 lung
SK-OV-3 ovarian = test system: SK-OV-3 ovarian
NCI-H226 lung = test system: NCI-H226 lung
K-562 leukemia = test system: K-562 leukemia
MALME-3M melanoma = test system: MALME-3M melanoma
SF-539 CNS = test system: SF-539 CNS
HS 578T breast = test system: HS 578T breast
MOLT-4 leukemia = test system: MOLT-4 leukemia
RXF 393 renal = test system: RXF 393 renal
MDA-MB-231 breast = test system: MDA-MB-231 breast
A549 NSCLC = test system: A549 NSCLC
T-47D breast = test system: T-47D breast
NCI-H23 lung = test system: NCI-H23 lung
HCT-15 colon = test system: HCT-15 colon
SR leukemia = test system: SR leukemia
SK-MEL-5 melanoma = test system: SK-MEL-5 melanoma
ACHN renal = test system: ACHN renal
CAKI-1 renal = test system: CAKI-1 renal
UO-31 renal = test system: UO-31 renal
SW-620 colon = test system: SW-620 colon
PC-3 prostate = test system: PC-3 prostate
COLO 205 colon = test system: COLO 205 colon
M14 melanoma = test system: M14 melanoma
HL-60(TB) leukemia = test system: HL-60(TB) leukemia
TK-10 renal = test system: TK-10 renal
SF-268 CNS = test system: SF-268 CNS
SN12C renal = test system: SN12C renal
MCF7 breast = test system: MCF7 breast
HCC-2998 colon = test system: HCC-2998 colon
HCT-116 colon = test system: HCT-116 colon
HOP-62 NSCLC = test system: HOP-62 NSCLC
DMS 273 small cell lung = test system: DMS 273 small cell lung
RPMI-8226 leukemia = test system: RPMI-8226 leukemia
DLD-1 colon = test system: DLD-1 colon
M19-MEL melanoma = test system: M19-MEL melanoma
SNB-78 CNS = test system: SNB-78 CNS
DMS 114 small cell lung = test system: DMS 114 small cell lung
OVCAR-3 ovarian = test system: OVCAR-3 ovarian

O=C1NC(=O)[C@@]2(CC[C@@H](O)C2)c2ccncc21
TGI (OVCAR-4 ovarian): > 100 µM | TGI (786-0 renal): > 100 µM | TGI (HOP-92 NSCLC): > 100 µM | TGI (BT-549 breast): > 100 µM | TGI (OVCAR-8 ovarian): > 100 µM | TGI (A498 renal): > 100 µM | TGI (NCI-H460 lung): > 100 µM | TGI (HT29 colon): > 100 µM | TGI (KM12 colon): > 100 µM | TGI (IGROV1 ovarian): > 100 µM | TGI (DU-145 prostate): > 100 µM | TGI (UACC-62 melanoma): > 100 µM | TGI (U251 CNS): > 100 µM | TGI (OVCAR-5 ovarian): > 100 µM | TGI (EKVX NSCLC): > 100 µM | TGI (LOX IMVI melanoma): > 100 µM | TGI (MDA-N): > 100 µM | TGI (UACC-257 melanoma): > 100 µM | TGI (SNB-19 CNS): > 100 µM | TGI (MDA-MB-435): > 100 µM | TGI (CCRF-CEM leukemia): > 100 µM | TGI (SK-MEL-28 melanoma): > 100 µM | TGI (SK-MEL-2 melanoma): > 100 µM | TGI (SNB-75 CNS): > 100 µM | TGI (NCI/ADR-RES ovarian): > 100 µM | TGI (NCI-H522 lung): > 100 µM | TGI (SK-OV-3 ovarian): > 100 µM | TGI (NCI-H226 lung): > 100 µM | TGI (K-562 leukemia): > 100 µM | TGI (MALME-3M melanoma): > 100 µM | TGI (SF-539 CNS): > 100 µM | TGI (HS 578T breast): > 100 µM | TGI (MOLT-4 leukemia): > 100 µM | TGI (RXF 393 renal): > 100 µM | TGI (MDA-MB-231 breast): > 100 µM | TGI (A549 NSCLC): > 100 µM | TGI (T-47D breast): > 100 µM | TGI (NCI-H23 lung): > 100 µM | TGI (HCT-15 colon): > 100 µM | TGI (SR leukemia): > 100 µM | TGI (SK-MEL-5 melanoma): > 100 µM | TGI (ACHN renal): > 100 µM | TGI (CAKI-1 renal): > 100 µM | TGI (UO-31 renal): > 100 µM | TGI (SW-620 colon): > 100 µM | TGI (PC-3 prostate): > 100 µM | TGI (COLO 205 colon): > 100 µM | TGI (M14 melanoma): > 100 µM | TGI (HL-60(TB) leukemia): > 100 µM | TGI (TK-10 renal): > 100 µM | TGI (SF-268 CNS): > 100 µM | TGI (SN12C renal): > 100 µM | TGI (MCF7 breast): > 100 µM | TGI (HCC-2998 colon): > 100 µM | TGI (HCT-116 colon): > 100 µM

Nc1ccc2nc(Nc3ccc(Cl)c(Cl)c3)cnc2c1
TGI (OVCAR-4 ovarian): 60.4 µM | TGI (786-0 renal): 33.1 µM | TGI (OVCAR-8 ovarian): > 100 µM | TGI (NCI-H460 lung): 45.3 µM | TGI (HT29 colon): 36.9 µM | TGI (KM12 colon): 32.3 µM | TGI (U251 CNS): 44.2 µM | TGI (OVCAR-5 ovarian): 46.8 µM | TGI (EKVX NSCLC): > 100 µM | TGI (HOP-62 NSCLC): 36.2 µM | TGI (LOX IMVI melanoma): 28 µM | TGI (DMS 273 small cell lung): 34.1 µM | TGI (UACC-257 melanoma): 71 µM | TGI (RPMI-8226 leukemia): 54.4 µM | TGI (DLD-1 colon): > 100 µM | TGI (SNB-19 CNS): 38.7 µM | TGI (CCRF-CEM leukemia): 9.57 µM | TGI (SK-MEL-28 melanoma): 36.8 µM | TGI (SK-MEL-2 melanoma): 37.7 µM | TGI (M19-MEL melanoma): 39.2 µM | TGI (SNB-78 CNS): > 100 µM | TGI (SNB-75 CNS): > 100 µM | TGI (NCI-H522 lung): 21.6 µM | TGI (NCI-H226 lung): 41.8 µM | TGI (K-562 leukemia): 82.5 µM | TGI (MALME-3M melanoma): 35.3 µM | TGI (SF-539 CNS): 64.5 µM | TGI (MOLT-4 leukemia): 97.7 µM | TGI (DMS 114 small cell lung): 24.5 µM | TGI (OVCAR-3 ovarian): 36.7 µM | TGI (A549 NSCLC): 41.9 µM | TGI (NCI-H23 lung): 66.5 µM | TGI (HCT-15 colon): 46.5 µM | TGI (SR leukemia): 35.5 µM | TGI (SK-MEL-5 melanoma): > 100 µM | TGI (ACHN renal): 91.9 µM | TGI (CAKI-1 renal): > 100 µM | TGI (UO-31 renal): 29.4 µM | TGI (SW-620 colon): 33.7 µM | TGI (COLO 205 colon): 34.9 µM | TGI (M14 melanoma): 27.4 µM | TGI (HL-60(TB) leukemia): 31.6 µM | TGI (TK-10 renal): 60.6 µM | TGI (SF-268 CNS): 37.8 µM | TGI (SN12C renal): 33 µM | TGI (HCC-2998 colon): 29.8 µM | TGI (HCT-116 colon): 33.4 µM
